Assay results taken from article PMC11882969 (Nature Communications, 2025).
pEC50: −log10 of the molar value. “And” between values parts separate entries of the source, which are not always exact repeats. Equal entries are not always repeated. Where two headings read alike, the source gives them in different places.

Target: hCB2 (Homo sapiens, UniProt P34972)
Assay: bioSensAll ebBRET signaling profiling, hCB2
Type: cell-based
Design: host or cells: HEK293SL cells, transient PEI transfection
Settings: for G13 hCB2 / G15 hCB2 / Gq hCB2 / Gs hCB2: raw signal; for pEC50: read-out: EC50 [95% CI]; for Emax: normalized to CP-55,940

Chain of hCB2 (P34972 whole entry): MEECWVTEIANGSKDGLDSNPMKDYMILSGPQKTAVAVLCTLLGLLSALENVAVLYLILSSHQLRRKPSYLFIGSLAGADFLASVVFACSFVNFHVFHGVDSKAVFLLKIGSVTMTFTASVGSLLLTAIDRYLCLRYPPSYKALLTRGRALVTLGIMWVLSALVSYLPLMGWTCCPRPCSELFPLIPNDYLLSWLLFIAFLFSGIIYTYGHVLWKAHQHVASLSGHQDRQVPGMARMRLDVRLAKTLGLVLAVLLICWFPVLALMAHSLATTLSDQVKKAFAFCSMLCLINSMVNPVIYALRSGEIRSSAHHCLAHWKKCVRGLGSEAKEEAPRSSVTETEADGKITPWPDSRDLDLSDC

COC(=O)C(C)(NC(=O)c1cc(C)n(-c2cccc(C(F)(F)F)c2)n1)c1cccs1 (stereo not drawn) [‘4042]
G13 hCB2 (Log [Compound] (M) -5.05788): 372 | G15 hCB2 (Log [Compound] (M) -5.05788): 871 | Gq hCB2 (Log [Compound] (M) -5.05788): 1851 | Gs hCB2 (Log [Compound] (M) -5.05788): 9765 | G13 hCB2 (Log [Compound] (M) -5.47381): 454 | G15 hCB2 (Log [Compound] (M) -5.47381): 873 | Gq hCB2 (Log [Compound] (M) -5.47381): 1786 | Gs hCB2 (Log [Compound] (M) -5.47381): 9415 | G13 hCB2 (Log [Compound] (M) -5.89285): 417 | G15 hCB2 (Log [Compound] (M) -5.89285): 919 | Gq hCB2 (Log [Compound] (M) -5.89285): 1814 | Gs hCB2 (Log [Compound] (M) -5.89285): 9299 | G13 hCB2 (Log [Compound] (M) -6.31878): 379 | G15 hCB2 (Log [Compound] (M) -6.31878): 911 | Gq hCB2 (Log [Compound] (M) -6.31878): 1840 | Gs hCB2 (Log [Compound] (M) -6.31878): 9425 | G13 hCB2 (Log [Compound] (M) -6.72585): 366 | G15 hCB2 (Log [Compound] (M) -6.72585): 869 | Gq hCB2 (Log [Compound] (M) -6.72585): 1780 | Gs hCB2 (Log [Compound] (M) -6.72585): 9320 | G13 hCB2 (Log [Compound] (M) -7.14267): 378 | G15 hCB2 (Log [Compound] (M) -7.14267): 865 | Gq hCB2 (Log [Compound] (M) -7.14267): 1798 | Gs hCB2 (Log [Compound] (M) -7.14267): 9628 | G13 hCB2 (Log [Compound] (M) -7.55284): 351 | G15 hCB2 (Log [Compound] (M) -7.55284): 908 | Gq hCB2 (Log [Compound] (M) -7.55284): 1838 | Gs hCB2 (Log [Compound] (M) -7.55284): 9429 | G13 hCB2 (Log [Compound] (M) -8): 336 | G15 hCB2 (Log [Compound] (M) -8): 870 | Gq hCB2 (Log [Compound] (M) -8): 1691 | Gs hCB2 (Log [Compound] (M) -8): 9233 | G13 hCB2 (Log [Compound] (M) -8.22186): 337 | G15 hCB2 (Log [Compound] (M) -8.22186): 953 | Gq hCB2 (Log [Compound] (M) -8.22186): 1914 | Gs hCB2 (Log [Compound] (M) -8.22186): 10090 | G13 hCB2 (Log [Compound] (M) -8.39794): 386 | G15 hCB2 (Log [Compound] (M) -8.39794): 901 | Gq hCB2 (Log [Compound] (M) -8.39794): 1867 | Gs hCB2 (Log [Compound] (M) -8.39794): 9624 | G13 hCB2 (Log [Compound] (M) -8.68787): 351 | G15 hCB2 (Log [Compound] (M) -8.68787): 876 | Gq hCB2 (Log [Compound] (M) -8.68787): 1937 | Gs hCB2 (Log [Compound] (M) -8.68787): 9194 | G13 hCB2 (Log [Compound] (M) -9.15521): 367 | G15 hCB2 (Log [Compound] (M) -9.15521): 910 | Gq hCB2 (Log [Compound] (M) -9.15521): 1811 | Gs hCB2 (Log [Compound] (M) -9.15521): 9196 | G13 hCB2 (Log [Compound] (M) -9.61989): 345 | G15 hCB2 (Log [Compound] (M) -9.61989): 880 | Gq hCB2 (Log [Compound] (M) -9.61989): 1785 | Gs hCB2 (Log [Compound] (M) -9.61989): 9153 | G13 hCB2 (Log [Compound] (M) -10.0969): 341 | G15 hCB2 (Log [Compound] (M) -10.0969): 856 | Gq hCB2 (Log [Compound] (M) -10.0969): 1790 | Gs hCB2 (Log [Compound] (M) -10.0969): 9401 | G13 hCB2 (Log [Compound] (M) -10.5529): 309 | G15 hCB2 (Log [Compound] (M) -10.5529): 917 | Gq hCB2 (Log [Compound] (M) -10.5529): 1878 | Gs hCB2 (Log [Compound] (M) -10.5529): 9283 | G13 hCB2 (Log [Compound] (M) -11.0177): 377 | G15 hCB2 (Log [Compound] (M) -11.0177): 837 | Gq hCB2 (Log [Compound] (M) -11.0177): 1802 | Gs hCB2 (Log [Compound] (M) -11.0177): 9354 | G13 hCB2 (Log [Compound] (M) -11.4949): 335 | G15 hCB2 (Log [Compound] (M) -11.4949): 822 | Gq hCB2 (Log [Compound] (M) -11.4949): 1866 | Gs hCB2 (Log [Compound] (M) -11.4949): 8977 | G13 hCB2 (Log [Compound] (M) -11.9208): 361 | G15 hCB2 (Log [Compound] (M) -11.9208): 904 | Gq hCB2 (Log [Compound] (M) -11.9208): 1780 | Gs hCB2 (Log [Compound] (M) -11.9208): 8976 | G13 hCB2 (Log [Compound] (M) -12.3979): 355 | G15 hCB2 (Log [Compound] (M) -12.3979): 851 | Gq hCB2 (Log [Compound] (M) -12.3979): 1758 | Gs hCB2 (Log [Compound] (M) -12.3979): 8977 | G13 hCB2 (Log [Compound] (M) -12.8861): 299 | G15 hCB2 (Log [Compound] (M) -12.8861): 809 | Gq hCB2 (Log [Compound] (M) -12.8861): 1793 | Gs hCB2 (Log [Compound] (M) -12.8861): 9246 | G13 hCB2 (Log [Compound] (M) -13): 267 and 381 | G15 hCB2 (Log [Compound] (M) -13): 851 and 879 | Gq hCB2 (Log [Compound] (M) -13): 1807 and 1732 | Gs hCB2 (Log [Compound] (M) -13): 9386 and 9439 | pEC50 (hCB2 Barr2 + GRK2): 8.26 | pEC50 (hCB2 Gi1): 8.57 | pEC50 (hCB2 Gi2): 8.89 | pEC50 (hCB2 GoB): 8.60 | Emax (read-out: Emax [95% CI], hCB2 Barr2 + GRK2): 33% | Emax (read-out: Emax [95% CI], hCB2 Gi1): 82% | Emax (read-out: Emax [95% CI], hCB2 Gi2): 70% | Emax (read-out: Emax [95% CI], hCB2 GoB): 61% | Emax (read-out: Emax [95% CI], hCB2 Gz): 56%
